Columns and labels:
[1] = test system: CD4+ T cells; test: Proliferation of AAV-specific CD4+ T cells on peptide-loaded dendritic cells (thymidine incorporation); assay type: cell-based, mice
Text: The peptide of interest is then produced by chemical synthesis together with a potentiating motif made of a cysteine residue added to flanking regions on each side of the epitope (SEQ ID NO: 18).

[2] = test system: CD4+ T cells to the AAV capsid; test: Functional assay of spleen CD4+ T cells after subcutaneous immunisation with peptide in alum; assay type: in vivo, mice; settings: 4 subcutaneous administrations at fortnight intervals with alum; spleen 10 days after last immunization
[3] = test system: AAV vector; test: Immune response to IV AAV vector particles in peptide-immunized mice; assay type: in vivo; settings: 10^9 AAV vector particles IV twice at an interval of 6 weeks
Text: Mice immunized with peptide of SEQ ID NO: 18 are then used for direct IV administration of 10^9 AAV vector particles administered twice at an interval of 6 weeks.

[4] = test system: class II-restricted effector CD4+ T cells; test: Peptide added to dendritic cells in cultures with class II-restricted effector CD4+ T cells; assay type: cell-based, human
Protocol: Naïve human CD4+ T cells are obtained from peripheral blood of subjects carrying either the DQ2 or DQ8 haplotype using microbeads coated with an anti-CD4+ antibody. Such cells are incubated with autologous dendritic cells derived from peripheral blood monocytes and loaded with peptide of sequence (SEQ ID NO: 19) so as to obtain effector CD4+ T cells.
In parallel experiments, a peptide of same sequence but containing a potentiating motif within flanking residues is used. Thus, a peptide of sequence (SEQ ID NO: 20) is produced, which contains in its flanking residues a sequence derived from an antibody to CD4, specific for the second extracellular domain of CD4.

## SEQ ID NO: 17: AAV VP1 capsid peptide encompassing an epitope activating CD4+ T cells (FNGLDKGEPVNEA; AAV)
[1]
  specificity of CD4+ T cell activation by thymidine incorporation as a marker of proliferation: confirmed to be specific

## SEQ ID NO: 18: AAV VP1 epitope with a cysteine residue added to flanking regions on each side (HCFNGLDKGEPVNEACH; SEQ 17 + Cys and Cys)
[2]
  activity of CD4+ T cells obtained by the immunisation schedule: exert a regulatory activity
[3]
  immune response towards the AAV vector: do not mount an immune response towards the AAV vector

## SEQ ID NO: 20: peptide of same sequence as SEQ ID NO: 19 with flanking sequence derived from an antibody to CD4 (QLQPFPQPQLPYPQRYD; SEQ I9 + CD4 motif)
[4]
  apoptosis of antigen-presenting dendritic cell and bystander effector CD4+ T cells: induction of apoptosis
  conversion of effector CD4+ T cells: conversion of effector CD4+ T cells into cells with strong regulatory activity
